The source of these data is patent US9399649B2, “Compounds for treating spinal muscular atrophy” (PTC Therapeutics Inc., priority 2012, dated 2016).

A word on the melting point: it is the temperature of the solid-liquid transition.

Data set [1] deals with Smn protein. Description: Smn protein assay in cultured cells (SMN HTRF). It counts as cell-based, human. Particulars: SMA patient fibroblast cells (GM03813), 48 hours; for maximum fold (Fold) increase of Smn protein: 7-point concentration data, relative to vehicle control; for EC1.5x for Smn protein expression: 7-point concentration curve, concentration producing 1.5 times Smn protein vs DMSO vehicle. The method, boiled down: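 Smn protein measured by HTRF (anti-SMN d2/kryptate) in lysates of SMA patient fibroblasts after 48 h compound treatment, 7-point 3.16-fold dilutions, triplicates. The 665/620 nm ratio is blank-corrected to ΔF, then divided by the vehicle ΔF to give fold increase.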
Background: Time-resolved FRET reads energy transfer from a long-lived donor to a nearby acceptor.

Data set [2] concerns full length SMN2 minigene mRNA containing SMN2 exon 7. The data set can be described thus: SMN2 minigene mRNA splicing RT-qPCR assay in cultured cells. It counts as cell-based, human. Particulars: Homo sapiens, HEK293-H; HEK293H cells stably transfected with SMN2-A minigene, 24 hours, 7-point concentration curve; concentration giving 1.5-fold full length SMN2 mRNA vs vehicle; read-out: EC1.5x for production of full length SMN2 mRNA. In a few lines:
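Read-out is minigene FL mRNA (exon 7 included) relative to vehicle, from efficiency-corrected ΔΔCt with GAPDH normalisation. Primers and probe span exon 7, exon 8 and luciferase, so endogenous SMN is not detected. Stable SMN2-A minigene HEK293H cells, 24 h compound exposure at 37 °C, 7-point curve in duplicate.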

Consider `O=c1oc(-c2ccsc2)cc2ccc(N3CCNCC3)cc12` [Cpd 2, 7-(piperazin-1-yl)-3-(thiophen-3-yl)-1H-isochromen-1-one], for which the melting point is 240 °C (dec.). The “maximum fold (Fold) increase of Smn protein” value (shortened to “maximum fold (Fold) increase”) in data set [1] was “** (a fold increase between >1.2 and ≦1.35 is indicated by two stars (**))”. For the same compound, the EC (1.5-fold) in data set [2] was in the range of 0.3 to 1 µM.
As for `COc1ccc(F)cc1-c1cc2ccc(N3CCN[C@@H](C)C3)cc2c(=O)o1` [Cpd 48, 3-(5-fluoro-2-methoxyphenyl)-7-[(3S)-3-methylpiperazin-1-yl]-1H-isochromen-1-one], the melting point was in the range of 115 to 117 °C. The “maximum fold (Fold) increase” value in data set [1] was “* (A maximum fold increase of ≦1.2 is indicated by one star (*))”. Also, the EC (1.5-fold) in data set [2] fell in the range of 0.3 to 1 µM.
As to `C[C@@H]1CN(c2ccc3cc(-c4nc5ccccc5s4)oc(=O)c3c2)C[C@H](C)N1` [Cpd 9, 3-(1,3-benzothiazol-2-yl)-7-[(3R,5S)-3,5-dimethylpiperazin-1-yl]-1H-isochromen-1-one], the melting point fell in the range of 310 to 312 °C. The “maximum fold (Fold) increase” value in data set [1] is on record as “* (A maximum fold increase of ≦1.2 is indicated by one star (*))”. Also, the EC (1.5-fold) in data set [2] lay in the range of 3 to 30 µM.
Take `Cc1cn2cc(-c3cc4ccc(N5CCN(C6CCC6)CC5)cc4c(=O)o3)nc2c(C)n1` [Cpd 87, 7-(4-cyclobutylpiperazin-1-yl)-3-(6,8-dimethylimidazo[1,2-a]pyrazin-2-yl)-1H-isochromen-1-one]: the melting point fell in the range of 279 to 281 °C. Further, in data set [1], the “EC1.5x for Smn protein expression” value was “**** (an EC1.5×≦0.3 nM is indicated by four stars (****))”; the “maximum fold (Fold) increase” value is “**** (a fold increase between >1.5 and ≦1.65 is indicated by four stars (****))”. In data set [2], the EC (1.5-fold) is no more than 0.1 µM.
For the compound `CN1CCN(c2ccc3cc(-c4ccc5nn(C)cc5c4)oc(=O)c3c2)CC1` [Cpd 157, 3-(2-methyl-2H-indazol-5-yl)-7-(4-methylpiperazin-1-yl)-1H-isochromen-1-one], the melting point fell in the range of 239 to 240 °C. In data set [1], the “EC1.5x for Smn protein expression” value was “**** (an EC1.5×≦0.3 nM is indicated by four stars (****))”; the “maximum fold (Fold) increase” value was “**** (a fold increase between >1.5 and ≦1.65 is indicated by four stars (****))”. Besides, the EC (1.5-fold) in data set [2] is no more than 0.1 µM.
`COc1ccc(-c2cc3ccc(N4CCN(C)CC4)cc3c(=O)o2)cc1` [Cpd 25, 3-(4-methoxyphenyl)-7-(4-methylpiperazin-1-yl)-1H-isochromen-1-one] showed a melting point of 166 to 168 °C. Besides, in data set [1], the “maximum fold (Fold) increase” value is reported as “* (A maximum fold increase of ≦1.2 is indicated by one star (*))”. The EC (1.5-fold) in data set [2] was in the range of 1 to 3 µM.
`CCN1CCN(c2ccc3cc(-c4cn5cc(C)ncc5n4)oc(=O)c3c2)C[C@@H]1C` [Cpd 120, 7-[(3S)-4-ethyl-3-methylpiperazin-1-yl]-3-(6-methylimidazo[1,2-a]pyrazin-2-yl)-1H-isochromen-1-one] had a melting point of 255 to 260 °C. In data set [1], the “EC1.5x for Smn protein expression” value is “**** (an EC1.5×≦0.3 nM is indicated by four stars (****))” and the “maximum fold (Fold) increase” value is “***** (a fold increase >1.65 is indicated by five stars (*****))”. In addition, the EC (1.5-fold) in data set [2] is no more than 0.1 µM.
`CCc1nc(C)cn2cc(-c3cc4ccc(N5CCN[C@H](C)C5)cc4c(=O)o3)nc12` [Cpd 153, 3-(8-ethyl-6-methylimidazo[1,2-a]pyrazin-2-yl)-7-[(3R)-3-methylpiperazin-1-yl]-1H-isochromen-1-one] displayed a melting point of 208 to 213 °C. Also, in data set [1], the “EC1.5x for Smn protein expression” value was “**** (an EC1.5×≦0.3 nM is indicated by four stars (****))” and the “maximum fold (Fold) increase” value is given as “***** (a fold increase >1.65 is indicated by five stars (*****))”. Besides, in data set [2], the EC (1.5-fold) is no more than 0.1 µM.
`CCCN1CCC(c2ccc3cc(-c4cn5cc(C)nc(C)c5n4)oc(=O)c3c2)CC1` [Cpd 116, 3-(6,8-dimethylimidazo[1,2-a]pyrazin-2-yl)-7-(1-propylpiperidin-4-yl)-1H-isochromen-1-one] came in with a melting point of 204 to 206 °C. In data set [1], the “EC1.5x for Smn protein expression” value was “*** (an EC1.5× between >0.3 nM and ≦1 nM is indicated by three stars (***))”; the “maximum fold (Fold) increase” value was “**** (a fold increase between >1.5 and ≦1.65 is indicated by four stars (****))”. Moreover, the EC (1.5-fold) in data set [2] is no more than 0.1 µM.
`CN1CCCN(c2ccc3cc(-c4nc5ccccc5s4)oc(=O)c3c2)CC1` [Cpd 11, 3-(1,3-benzothiazol-2-yl)-7-(4-methyl-1,4-diazepan-1-yl)-1H-isochromen-1-one] showed a melting point of 270 to 272 °C. Further, the “maximum fold (Fold) increase” value in data set [1] is reported as “* (A maximum fold increase of ≦1.2 is indicated by one star (*))”. In data set [2], the EC (1.5-fold) fell in the range of 0.3 to 1 µM.
In turn, `Cc1nc2ccc(-c3cc4ccc(N5CCN(C6COC6)CC5)cc4c(=O)o3)cc2s1` [Cpd 107, 3-(2-methyl-1,3-benzothiazol-6-yl)-7-[4-(oxetan-3-yl)piperazin-1-yl]-1H-isochromen-1-one] displayed a melting point of 222 to 228 °C. In data set [1], the “maximum fold (Fold) increase” value is “*** (a fold increase between >1.35 and ≦1.5 is indicated by three stars (***))”. Moreover, the EC (1.5-fold) in data set [2] was 0.3 to 1 µM.
`Cc1cn2cc(-c3cc4ccc(C5=CCN(C6COC6)CC5)cc4c(=O)o3)nc2c(C)n1` [Cpd 98, 3-(6,8-dimethylimidazo[1,2-a]pyrazin-2-yl)-7-[1-(oxetan-3-yl)-1,2,3,6-tetrahydropyridin-4-yl]-1H-isochromen-1-one] came in with a melting point of 253 to 255 °C. In addition, in data set [1], the “EC1.5x for Smn protein expression” value was “*** (an EC1.5× between >0.3 nM and ≦1 nM is indicated by three stars (***))”; the “maximum fold (Fold) increase” value is “***** (a fold increase >1.65 is indicated by five stars (*****))”. In data set [2], the EC (1.5-fold) was no more than 0.1 µM.
On to `CCCN1CCN(c2ccc3cc(-c4cn5cc(C)nc(C)c5n4)oc(=O)c3c2)CC1` [Cpd 82, 3-(6,8-dimethylimidazo[1,2-a]pyrazin-2-yl)-7-(4-propylpiperazin-1-yl)-1H-isochromen-1-one], for which the melting point lay in the range of 244 to 246 °C. Also, in data set [1], the “EC1.5x for Smn protein expression” value was “**** (an EC1.5×≦0.3 nM is indicated by four stars (****))” and the “maximum fold (Fold) increase” value is reported as “***** (a fold increase >1.65 is indicated by five stars (*****))”. Besides, the EC (1.5-fold) in data set [2] was no more than 0.1 µM.
For `Cn1cc2cc(-c3cc4ccc(N5CCNCC5)cc4c(=O)o3)ccc2n1` [Cpd 156, 3-(2-methyl-2H-indazol-5-yl)-7-(piperazin-1-yl)-1H-isochromen-1-one], the melting point lay within 268 to 270 °C. For the same compound, in data set [1], the “EC1.5x for Smn protein expression” value is reported as “**** (an EC1.5×≦0.3 nM is indicated by four stars (****))” and the “maximum fold (Fold) increase” value is recorded as “***** (a fold increase >1.65 is indicated by five stars (*****))”. Besides, the EC (1.5-fold) in data set [2] is no more than 0.1 µM.
Turning to `CCN1CCN(c2ccc3cc(-c4cn5cc(Cl)nc(C)c5n4)oc(=O)c3c2)CC1` [Cpd 102, 3-(6-chloro-8-methylimidazo[1,2-a]pyrazin-2-yl)-7-(4-ethylpiperazin-1-yl)-1H-isochromen-1-one], the melting point is 229 to 234 °C. Moreover, in data set [1], the “maximum fold (Fold) increase” value was “*** (a fold increase between >1.35 and ≦1.5 is indicated by three stars (***))”. Besides, the EC (1.5-fold) in data set [2] fell in the range of 0.1 to 0.3 µM.
`Cc1cn2cc(-c3cc4ccc(N5CCN(C(C)C)CC5)cc4c(=O)o3)nc2c(C)n1` [Cpd 74, 3-(6,8-dimethylimidazo[1,2-a]pyrazin-2-yl)-7-[4-(propan-2-yl)piperazin-1-yl]-1H-isochromen-1-one] displayed a melting point of 260 to 262 °C. Moreover, in data set [1], the “EC1.5x for Smn protein expression” value is given as “**** (an EC1.5×≦0.3 nM is indicated by four stars (****))” and the “maximum fold (Fold) increase” value was “***** (a fold increase >1.65 is indicated by five stars (*****))”. Further, the EC (1.5-fold) in data set [2] is no more than 0.1 µM.
On to `Cc1cn2cc(-c3cc4ccc(C5CCN(C6COC6)CC5)cc4c(=O)o3)nc2c(C)n1` [Cpd 119, 3-(6,8-dimethylimidazo[1,2-a]pyrazin-2-yl)-7-[1-(oxetan-3-yl)piperidin-4-yl]-1H-isochromen-1-one], for which the melting point fell in the range of 225 to 227 °C. For the same compound, in data set [1], the “EC1.5x for Smn protein expression” value was “*** (an EC1.5× between >0.3 nM and ≦1 nM is indicated by three stars (***))”; the “maximum fold (Fold) increase” value is given as “***** (a fold increase >1.65 is indicated by five stars (*****))”. For the same compound, the EC (1.5-fold) in data set [2] is 0.1 to 0.3 µM.
As for `C[C@H]1CN(c2ccc3cc(-c4ccc(OC(F)F)cc4)oc(=O)c3c2)CCN1` [Cpd 54, 3-[4-(difluoromethoxy)phenyl]-7-[(3S)-3-methylpiperazin-1-yl]-1H-isochromen-1-one], the melting point fell in the range of 121 to 123 °C. Further, the “maximum fold (Fold) increase” value in data set [1] was “* (A maximum fold increase of ≦1.2 is indicated by one star (*))”. For the same compound, the EC (1.5-fold) in data set [2] was in the range of 0.3 to 1 µM.
As to `Cc1cn2cc(-c3cc4ccc(N5CCN(C)CC5)cc4c(=O)o3)cc2c(C)n1` [Cpd 76, 3-(1,3-dimethylpyrrolo[1,2-a]pyrazin-7-yl)-7-(4-methylpiperazin-1-yl)-1H-isochromen-1-one], the melting point lay within 219 to 221 °C. For the same compound, in data set [1], the “EC1.5x for Smn protein expression” value is “** (an EC1.5× between >1 μM, and ≦3 nM is indicated by two stars (**))”; the “maximum fold (Fold) increase” value was “*** (a fold increase between >1.35 and ≦1.5 is indicated by three stars (***))”. For the same compound, the EC (1.5-fold) in data set [2] was no more than 0.1 µM.
